{"source": "paper PMC9223397", "about": "(International Journal of Molecular Sciences, 2022)", "key": {"[1]": {"system": "spinal α-MNs in SOD1^G93A mice", "assay": "Spinal MN counts in SOD1G93A mice", "type": "in vivo, SOD1^G93A male mice", "details": "5 mg/kg i.p.; 16 weeks of age; untreated 6.9 ± 0.5, WT 25.3 ± 0.5", "description": "(§1) The compounds were dissolved in 0.5% hydroxypropyl-methylcellulose (HPMC; H7509, Sigma-Aldrich) in distilled water and were administered by intraperitoneal (i.p.) route twice daily (bid) in a volume of 10 mL/kg. Administrations were given from 30 min after rhizotomy surgery until 42 days post-injury (dpi), the end of the study; in the SOD1^G93A study, treatments were given from 8 to 16 weeks of age (see Figure 6).\n(§2) At the end of follow-up (42 dpi for rhizotomy and 16 weeks of age for ALS mice; Figure 6), the animals were deeply anesthetized and transcardially perfused with 4% PFA in PBS. The lumbar spinal cord and the TA muscle were harvested and cryopreserved in 30% sucrose solution in PB. The spinal cords were serially cut in 20 µm thick transverse sections with a cryostat (Leica, Mannheim, Germany). For MN counting, L4-L5 spinal cord sections separated 100 µm were stained for 3 h with an acidified solution of 3.1 mM cresyl violet. MNs were identified by their localization in the lateral ventral horn of the spinal cord and were counted following strict size and morphological criteria: only MNs with a diameter larger than 20 µm, polygonal shape, and prominent nucleoli were counted."}, "[2]": {"system": "NMJs of hindlimb muscle in SOD1^G93A mice", "assay": "Neuromuscular junction innervation in SOD1G93A mice", "type": "in vivo, SOD1^G93A male mice", "details": "5 mg/kg i.p.; 16 weeks of age", "description": "as §1\nFor neuromuscular junction (NMJ) labeling, 50 µm thick longitudinal sections of TA muscle were serially cut. Sections were blocked with 5% normal donkey serum and incubated with primary antibodies rabbit anti-synaptophysin (1:500; Ab32127, Abcam, Cambridge, UK) and chicken anti-neurofilament 200 (NF200, 1:1000; AB5539, Millipore, Burlington, MS, USA) 48 h at 4 °C. After washes, sections were incubated overnight with secondary antibody Alexa Fluor 594-donkey anti-rabbit and anti-chicken (1:200; A11042-A21207, Invitrogen, USA) and Alexa 488 conjugated α-bungarotoxin (1:500; B13422, Life Technologies, Carlsbad, CA USA). Confocal images were captured (LSM 700 Axio Observer, Carl Zeiss, Jena, Germany, 40xOil/z0.5), and the maximum projection images generated from 1.3 µm z projections. The proportion of innervated NMJs was calculated by classifying each endplate as occupied (when presynaptic terminals overlie the endplate) or vacant (no presynaptic label in contact with the endplate). At least 60 endplates were analyzed per muscle."}, "[3]": {"system": "microglia and astrocytes in ventral horn of SOD1^G93A mice", "assay": "Glial reactivity in SOD1G93A mice (Iba1, GFAP)", "type": "in vivo, SOD1^G93A male mice", "details": "5 mg/kg i.p.; 16 weeks of age", "description": "as §1\nFor glial cells immunofluorescence, other lumbar spinal cord sections were blocked with 10% normal donkey serum and incubated overnight with primary antibodies rabbit anti-Iba1 (1:500; 019–19741, Wako) and rat anti-GFAP (1:500; 13-0300, Invitrogen) to label microglia and astroglia, respectively. After several washes, sections were incubated with secondary antibodies Alexa Fluor 488-donkey anti-rat (1:500; A-21208, Invitrogen) or Alexa Fluor 594 donkey anti-rabbit (1:500; A21207, Invitrogen). Finally, sides were mounted with Fluoromount-G. To quantify glial cell reactivity, images of the ventral horn were acquired with an epifluorescence microscope (Nikon Eclipse Ni, Japan) using the same conditions for each analyzed marker. After defining a threshold for background correction, the integrated density of GFAP or Iba1 labeling was measured using ImageJ software."}, "[4]": {"assay": "Plasma levels, SOD1G93A model", "type": "in vivo, Transgenic SOD1^G93A male mouse", "details": "SOD1G93A transgenic, ip", "description": "as §1\nPlasma levels were determined in the two in vivo models evaluated to be able to associate the pharmacological activity with the levels present in plasma. In the rhizotomy model, the plasma levels were evaluated at Day 42 after surgery and at 15 min after compound administration (0.5 and 5 mg/kg i.p.). […] Plasma samples were assayed by ultraperformance liquid chromatography−triple quadrupole mass spectrometry (UPLC-MS/MS) after plasma protein precipitation. Results are expressed as mean ± standard deviation (n = 8)."}, "[5]": {"system": "spinal MNs after L4-L5 rhizotomy", "assay": "MN survival after L4-L5 rhizotomy (cresyl violet MN counts)", "type": "in vivo, female mice (B6SJL)", "description": "Surgeries were performed on three-month-old mice under anesthesia with ketamine-xylazine (100–10 mg/kg i.p.) as previously described. Briefly, the L4-L5 spinal roots were exposed by a small laminectomy on the right side. Afterwards, roots were cut at the exit from the intervertebral foramina, and the root stumps were separated. Mice were cared for until recovery in a warm environment. Analgesia was provided with buprenorphine (0.1 mg/kg) for the next 48 h post-surgery.\nas §1, §2"}, "[6]": {"system": "SOD1^G93A mice", "assay": "Rotarod test in SOD1G93A mice", "type": "in vivo, SOD1^G93A male mice", "details": "5 mg/kg i.p.; at 15 weeks of age", "description": "as §1\nA rotarod test was performed to evaluate motor coordination and strength. The time that each animal remained on the rotating rod at a speed of 14 rpm was measured for five trials per mouse, and the longest time until falling was recorded; 180 s was chosen as the cut-off time. The test was performed weekly from 8 to 16 weeks of age in SOD1^G93A and WT mice, and disease onset was determined as the first week when each mouse was unable to keep walking for 180 s on the rod."}, "[7]": {"assay": "Body weight in SOD1G93A mice", "type": "in vivo, SOD1^G93A male mice", "details": "5 mg/kg i.p., 8 to 16 weeks of age", "description": "as §1"}, "[8]": {"details": "0.5 mg/kg bid i.p., 42 dpi, not significant"}, "[9]": {"details": "5 mg/kg/bid i.p. 6 weeks, 42 days after injury, untreated injured 6.8 ± 0.3"}}, "note": "Where two headings read alike, the source gives them in different places.", "data": [{"smiles": "CCN1CC2(CCN(Cc3ccc(C#N)c(F)c3)CC2)O[C@@H](C)C1=O", "note": "[EST79376]", "values": [{"measurement": "Number of surviving spinal α-MNs", "setting": "[1]", "value": "8.5 ± 1.0", "unit": "MNs per section"}, {"measurement": "Proportion of innervated endplates (NMJ) vs vehicle", "setting": "[2]", "value": "tendency to preserve NMJ innervation, although differences did not reach statistical significance"}, {"measurement": "Astrocyte activation (GFAP)", "setting": "[3]", "value": "significant decrease in astrocyte activation"}, {"measurement": "Microglial activation (Iba1)", "setting": "[3]", "value": "did not reduce microglial activation"}, {"measurement": "concentration at 15 min", "setting": "[4]; male, mouse, in vivo, 5 mg/kg", "value": 692, "unit": "ng/mL"}, {"measurement": "Number of spinal MNs ± SEM, ipsilateral ventral horn", "setting": "[5]; [8]", "value": "7.4 ± 0.7"}, {"measurement": "Number of spinal MNs ± SEM, ipsilateral ventral horn", "setting": "[5]; [9]", "value": "8.7 ± 0.5"}]}, {"smiles": "C[C@@H]1OC2(CCN(Cc3ccc(F)cc3)CC2)CN(C)C1=O", "note": "[EST79232]", "values": [{"measurement": "Number of surviving spinal α-MNs", "setting": "[1]", "value": "10.8 ± 1.1", "unit": "MNs per section"}, {"measurement": "Rotarod performance vs vehicle", "setting": "[6]", "value": "significant improvement"}, {"measurement": "Body weight vs vehicle group", "setting": "[7]", "value": "did not cause differences in body weight"}, {"measurement": "Proportion of innervated endplates (NMJ) vs vehicle", "setting": "[2]", "value": "tendency to preserve NMJ innervation, although differences did not reach statistical significance"}, {"measurement": "Astrocyte activation (GFAP)", "setting": "[3]", "value": "significant decrease in astrocyte activation"}, {"measurement": "Microglial activation (Iba1)", "setting": "[3]", "value": "did not reduce microglial activation"}, {"measurement": "concentration at 15 min", "setting": "[4]; plasma, SOD1G93A male mouse, 5 mg/kg i.p., after 8 weeks of administration, read-out: Plasma Concentration 15 min Post-Administration, Mean", "value": 425, "unit": "ng/mL"}, {"measurement": "Number of spinal MNs ± SEM, ipsilateral ventral horn", "setting": "[5]; [8]", "value": "7.6 ± 0.9"}, {"measurement": "Number of spinal MNs ± SEM, ipsilateral ventral horn", "setting": "[5]; [9]", "value": "8.6 ± 0.6"}]}]}
